Earlier results in US20200146297A1, “FAST SYMPTOM HERBICIDAL COMPOSITIONS CONTAINING AN ORGANO[…], BI[…] A[…] SURFACTANT” (Monsanto Technology LLC, priority 2016, published 2020).

Tests used:
[1] = known to decompose
plant = settings: after treatment

Structure (SMILES) | pH at which decomposition occurs [1] | time until visual symptoms of treatment appear (plant)
c1cc[n+]2c(c1)-c1cccc[n+]1CC2 [Diquat dibromide] | greater than 7 | 
O=C(O)CNCP(=O)(O)O [glyphosate, N-(phosphonomethyl)glycine] |  | one week or more
